Our source for the IC50 values is patent US5968487A (L'Oreal, priority 1996, dated 1999).

The experiment concerns the target T1, human melanocyte tyrosinase (Homo sapiens, UniProt P14679).
T1 construct: endogenous in cells; host or cells: cultured human melanocytes (Triton X-100 / ultrasound extract after 3 days' culture with the compound)
T1 sequence (P14679 19-529): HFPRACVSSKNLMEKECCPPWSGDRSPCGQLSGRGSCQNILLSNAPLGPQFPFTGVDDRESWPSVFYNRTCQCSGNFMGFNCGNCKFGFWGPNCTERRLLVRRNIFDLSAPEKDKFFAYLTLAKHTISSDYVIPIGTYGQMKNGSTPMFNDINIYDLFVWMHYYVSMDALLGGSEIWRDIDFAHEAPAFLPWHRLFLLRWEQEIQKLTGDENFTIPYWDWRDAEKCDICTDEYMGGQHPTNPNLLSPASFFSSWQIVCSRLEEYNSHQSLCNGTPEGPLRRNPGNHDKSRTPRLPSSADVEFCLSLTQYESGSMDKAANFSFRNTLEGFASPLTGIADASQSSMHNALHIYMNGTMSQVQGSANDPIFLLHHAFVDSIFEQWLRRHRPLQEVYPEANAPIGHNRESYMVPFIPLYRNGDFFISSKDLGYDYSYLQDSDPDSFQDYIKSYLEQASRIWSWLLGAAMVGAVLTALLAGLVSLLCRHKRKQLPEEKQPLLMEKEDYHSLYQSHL
Description: dopa-oxidase activity of human melanocyte tyrosinase after 3-day culture of melanocytes with the compound. As to conditions: human melanocytes cultured three days with compound; lysate + 5 mM L-dopa, absorbance at 475 nm (dopachrome), 25° C., 60 minutes; read-out: IC50, concentration of active product required to obtain a 50% inhibition of the production of melanin. The experiment is classed as cell-based.

Structures are written as SMILES.

Description: After three days, the melanocytes were "trypsinized" in a mixture of trypsin/0.05% EDTA/0.02% in a phosphate buffer (50 mM at pH 6.8), washed three times in phosphate buffer containing 1% (w/v) Triton X-100 and subjected to ultrasound. After centrifugation, samples were taken and mixed with 5 mM L-dopa in phosphate buffer. The tyrosinase activity was evaluated by spectrophotometry by measuring the increase in the absorbance at 475 nm due to the formation of dopachrome from 5 mM dopa. The absorbance was read on a microplate reader at 25° C. for 60 minutes.
The activity of the cellular tyrosinase is measured relative to a standard range prepared with commercial tyrosinase.
The value of IC50, i.e., the concentration of active product required to obtain a 50% inhibition of the production of melanin, is determined.

`O=C1NC(C(=O)OCc2cc(=O)c(O)co2)CS1` (stereo not shown) [5-hydroxy-4-oxo-4H-pyran-2-ylmethyl 2-oxothiazolidine-4-carboxylate]: the IC50 is 200 to 300 µM.
